One experiment concerns the target T1, TBK1 (Homo sapiens, UniProt Q9UHD2).
T1 sequence (Q9UHD2 1-729): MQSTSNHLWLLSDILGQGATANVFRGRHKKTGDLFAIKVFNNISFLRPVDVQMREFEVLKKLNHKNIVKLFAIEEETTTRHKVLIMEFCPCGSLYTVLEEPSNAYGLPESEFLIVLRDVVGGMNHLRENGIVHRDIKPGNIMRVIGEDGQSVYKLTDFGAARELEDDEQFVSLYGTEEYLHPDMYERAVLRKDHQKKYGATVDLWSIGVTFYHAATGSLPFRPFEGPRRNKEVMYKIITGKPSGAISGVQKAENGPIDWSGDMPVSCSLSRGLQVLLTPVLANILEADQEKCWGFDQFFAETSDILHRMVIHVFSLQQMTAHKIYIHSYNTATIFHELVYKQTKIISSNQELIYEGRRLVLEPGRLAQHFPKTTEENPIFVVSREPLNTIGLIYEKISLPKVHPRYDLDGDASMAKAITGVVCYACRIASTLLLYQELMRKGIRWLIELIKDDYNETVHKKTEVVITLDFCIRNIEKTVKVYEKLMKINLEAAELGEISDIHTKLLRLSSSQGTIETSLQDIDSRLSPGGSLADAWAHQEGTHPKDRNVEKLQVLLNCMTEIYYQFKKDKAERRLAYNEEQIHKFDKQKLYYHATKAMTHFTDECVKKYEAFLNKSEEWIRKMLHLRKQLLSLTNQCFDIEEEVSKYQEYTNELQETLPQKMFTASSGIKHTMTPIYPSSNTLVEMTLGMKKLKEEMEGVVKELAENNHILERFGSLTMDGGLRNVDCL
Description: TBK Biochemical Assay. The conditions noted are these: read-out: TBK1 IC50. A digest of the protocol: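 Caliper LabChip mobility-shift readout of substrate and product after 90 min of TBK1 reaction at 25° C and stop-buffer addition. Compounds tested in 1:4 serial dilution over 10 points from 30 uM final at 1% DMSO; staurosporine 10 uM final defines full inhibition.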

Experiment [1] relates to phosphorylation of the IRF-3 protein in MDA-MB-468 cells. Description: pIRF3 immunocytochemistry cell based assay. The note with it: Homo sapiens; MDA-MB-468 cells, Poly(I:C) stimulation; read-out: pIRF3 IC50. The procedure:
The purpose of the pIRF3 immunocytochemistry cell based assay was to identify small molecules which modulates TBK/IKKe kinase activity through on target substrate phosphorylation of the IRF-3 protein. On the first day of the experiment, MDA-MB-468 cells were plated in 384 well, black, clear-bottom, Poly D lysine coated plates at a density of 5000 cells/well in 45 ul of complete DMEM and allowed to adhere overnight. On the second day compounds were added to cells at a starting concentration of 10 uM with a serial dilution of 3-fold for a total of 10 points. The cells were incubated for 1 hr at 37° C. Cells were then stimulated with Poly(I:C) at a final concentration of 10 ug/ml, and were incubated for 2 hr at 37° C. Following the incubation, media was removed from the wells and the cells were fixed with 4% PFA for 15 min at RT. Cells were washed at least 3 times with PBS, and then permeabilized with ice-cold methanol for 10 min at RT. The washing step was repeated and the cells were then blocked using 10% goat serum/1% BSA, made up in PBS and allowed to incubate at RT for 1 hr. The cells were washed again and then treated with an anti-pIRF3 antibody at 4° C. overnight (1:250 dilution of Abcam ab76493 in PBS containing 1% BSA). On the third day the primary antibody was washed off and pIRF3 was detected by adding the secondary antibody conjugated to AlexaFluor488 (1:200 dilution of secondary antibody in PBS containing 1% BSA) for 1 hr at RT. Cells were washed and then counterstained with PI/RNase staining buffer for 15 min at RT and read on the Acumen Explorer laser scanning cytometer. The percentage of phosphorylation of the IRF-3 protein was calculated using the following algorithm, a modified version of the mean half width intensity (pIRF3 staining)/(PI staining or # of cells)×100%). IC50 curves were generated using the Genedata software.

Another experiment has as its target T2, IKKε (Homo sapiens, UniProt Q14164).
T2 sequence (Q14164 1-716): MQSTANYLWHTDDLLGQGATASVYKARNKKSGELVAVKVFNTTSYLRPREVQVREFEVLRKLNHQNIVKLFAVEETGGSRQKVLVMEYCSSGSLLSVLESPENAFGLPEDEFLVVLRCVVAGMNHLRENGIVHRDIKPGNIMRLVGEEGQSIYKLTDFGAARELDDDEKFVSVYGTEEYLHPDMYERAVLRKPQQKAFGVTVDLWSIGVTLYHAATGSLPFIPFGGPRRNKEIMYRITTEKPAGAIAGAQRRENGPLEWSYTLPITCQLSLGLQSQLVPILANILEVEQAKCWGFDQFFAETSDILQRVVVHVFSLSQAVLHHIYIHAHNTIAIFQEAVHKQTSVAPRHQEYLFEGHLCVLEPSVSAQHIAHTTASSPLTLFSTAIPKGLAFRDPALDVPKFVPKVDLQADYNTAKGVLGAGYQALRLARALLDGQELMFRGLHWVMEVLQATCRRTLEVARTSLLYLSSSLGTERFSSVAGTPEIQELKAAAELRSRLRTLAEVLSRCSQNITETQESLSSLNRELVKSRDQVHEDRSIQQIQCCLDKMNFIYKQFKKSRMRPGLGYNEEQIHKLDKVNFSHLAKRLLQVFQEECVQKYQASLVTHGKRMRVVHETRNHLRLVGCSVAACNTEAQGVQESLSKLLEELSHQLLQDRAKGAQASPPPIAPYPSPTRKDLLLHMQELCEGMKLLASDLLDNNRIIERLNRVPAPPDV
As to the kind of experiment: IKKe Biochemical Assay. The note with it: read-out: IKKε IC50. A digest of the protocol:
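Activity was measured as mobility-shift separation of phosphorylated from unphosphorylated substrate on a LabChip EZ Reader. Compound was titrated from 30 uM final in 10 points, 1:4 steps, with 1% DMSO, and enzyme plus substrate reacted 90 min at 25° C before stop buffer. Control wells held 10 uM staurosporine.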

The IC50 is the concentration at which inhibition is half-maximal.

Counter-ions that a name gives are not always drawn.

On to `COc1cc(C(=O)N(C)C)cnc1-c1cc2ncc(OC)c(-c3ccc(OC4CCOCC4)c(C#N)c3)c2o1` [Compound 339, 6-[7-[3-cyano-4-(oxan-4-yloxy)phenyl]-6-methoxyfuro[3,2-b]pyridin-2-yl]-5-methoxy-N,N-dimethylpyridine-3-carboxamide], for which the concentration for half-maximal inhibition (IC50) was 100 to 1000 nM on TBK1 and under 100 nM in experiment [1].
Turning to `COc1cc(C(=O)N(C)C)ccc1-c1cc2nccc(-c3ccc(C(C)(C)N4CCOCC4)c(C#N)c3)c2o1` [Compound 291, 4-(7-[3-cyano-4-[2-(morpholin-4-yl)propan-2-yl]phenyl]furo[3,2-b]pyridin-2-yl)-3-methoxy-N,N-dimethylbenzamide hydrochloride], the IC50 in experiment [1] was over 5000 nM.
Turning to `CC(C)(C)OC(=O)Nc1ccc(-c2cc3nccc(-c4ccc(OC5CCOCC5)c(C#N)c4)c3o2)cc1` [Compound 183], the results for the IC50 at TBK1 and on IKKε were 1000 to 5000 nM and 100 to 1000 nM, respectively.
Consider `COc1cc(C(=O)N(C)C2CCNC2)ccc1-c1cc2nccc(-c3ccc(OC4CCOCC4)c(C#N)c3)c2o1` (stereo not shown) [Compound 56, 4-{7-[3-Cyano-4-(tetrahydro-pyran-4-yloxy)-phenyl]-furo[3,2-b]pyridin-2-yl}-3-methoxy-N-methyl-N-pyrrolidin-3-yl-benzamide], for which the IC50 at TBK1 and at IKKε was under 100 nM throughout.
For the molecule `COc1cc(C(=O)N(C)C)ccc1-c1cc2nccc(-c3ccc(NC4CCOCC4)c(C#N)c3)c2o1` [Compound 226, 4-(7-(3-cyano-4-(tetrahydro-2H-pyran-4-ylamino)phenyl)furo[3,2-b]pyridin-2-yl)-3-methoxy-N,N-dimethylbenzamide], the 50% inhibitory concentration (IC50) at TBK1 and on IKKε was under 100 nM throughout.
For `CCCN(C)C(=O)c1ccc(-c2cc3nccc(-c4ccc(OC5CCOCC5)c(C#N)c4)c3o2)c(OC)c1` [Compound 257, 4-(7-(3-cyano-4-(tetrahydro-2H-pyran-4-yloxy)phenyl)furo[3,2-b]pyridin-2-yl)-3-methoxy-N-methyl-N-propylbenzamide hydrochloride], the IC50 on TBK1 and at IKKε was under 100 nM each time.
For the molecule `COc1cc(C(=O)N(C)CCO)cnc1-c1cc2ncc(C3CC3)c(-c3ccc(OC4CCOCC4)c(C#N)c3)c2o1` [Compound 341, 6-[7-[3-cyano-4-(oxan-4-yloxy)phenyl]-6-cyclopropylfuro[3,2-b]pyridin-2-yl]-N-(2-hydroxyethyl)-5-methoxy-N-methylpyridine-3-carboxamide hydrochloride], the half-maximal inhibitory concentration (IC50) on TBK1 and on IKKε was over 5000 nM in each case.
For the molecule `CN(C)C(=O)c1ccc(-c2cc3nccc(-c4ccc(N5CC[C@H](F)C5)c(C#N)c4)c3o2)nc1` (single isomer, unassigned) [Compound 272, 6-(7-(3-cyano-4-(3-fluoropyrrolidin-1-yl)phenyl)furo[3,2-b]pyridin-2-yl)-N,N-dimethylnicotinamide hydrochloride], the IC50 on TBK1 and on IKKε was under 100 nM each time.
As for `COc1cc(C(=O)N(C)C)ccc1-c1cc2nccc(Nc3ccc(OC4CCOCC4)c(C#N)c3)c2o1` [Compound 399, 4-(7-[[3-cyano-4-(oxan-4-yloxy)phenyl]amino]furo[3,2-b]pyridin-2-yl)-3-methoxy-N,N-dimethylbenzamide], the IC50 on TBK1 and at IKKε was over 5000 nM in each case.
In the case of `COc1cc(C(=O)N(C)C)ccc1-c1cc2nccc(-c3ccc(OC4CCN(C(C)C)C4)c(C#N)c3)c2o1` (stereo not shown) [Compound 157, 4-{7-[3-Cyano-4-(1-isopropyl-pyrrolidin-3-yloxy)-phenyl]-furo[3,2-b]pyridin-2-yl}-3-methoxy-N,N-dimethyl-benzamide], the IC50 is 100 to 1000 nM at TBK1 and under 100 nM on IKKε.
As to `COc1cc(C(=O)N2CCCC(O)C2)ccc1-c1cc2nccc(-c3ccc(OC4CCOCC4)c(C#N)c3)c2o1` (stereo not shown) [Compound 22, 5-{2-[4-(3-Hydroxy-piperidine-1-carbonyl)-2-methoxy-phenyl]-furo[3,2-b]pyridin-7-yl}-2-(tetrahydro-pyran-4-yloxy)-benzonitrile], the half-maximal inhibitory concentration (IC50) on TBK1 and at IKKε was under 100 nM throughout.
On to `CN(C)C(=O)c1ccc(-c2cc3nccc(-c4ccc(OC5CCOCC5)c(C#N)c4)c3o2)nn1` [Compound 242, 6-(7-(3-cyano-4-(tetrahydro-2H-pyran-4-yloxy)phenyl)furo[3,2-b]pyridin-2-yl)-N,N-dimethylpyridazine-3-carboxamide hydrochloride], for which the IC50 on TBK1 and at IKKε was 100 to 1000 nM in each case.
With `COc1cc(C(=O)N(C)C)cnc1-c1cc2nccc(-c3ccc(NC4CCOCC4)c(C#N)c3)c2o1` [Compound 270, 6-(7-(3-cyano-4-(tetrahydro-2H-pyran-4-ylamino)phenyl)furo[3,2-b]pyridin-2-yl)-5-methoxy-N,N-dimethylnicotinamide hydrochloride], the half-maximal inhibitory concentration (IC50) at TBK1 and at IKKε was under 100 nM in each case.
As for `COc1cc(C(=O)NCC2CCCCC2(F)F)ccc1-c1cc2nccc(-c3ccc(OC4CCOCC4)c(C#N)c3)c2o1` (stereo not shown) [Compound 151, 4-{7-[3-Cyano-4-(tetrahydro-pyran-4-yloxy)-phenyl]-furo[3,2-b]pyridin-2-yl}-N-(2,2-difluoro-cyclohexylmethyl)-3-methoxy-benzamide], the concentration for half-maximal inhibition (IC50) on TBK1 and on IKKε was under 100 nM in each case.
As to `COc1cc(C(=O)NC2CCOCC2)ccc1-c1cc2nccc(-c3ccc(OC4CCOCC4)c(C#N)c3)c2o1` [Compound 83, 4-{7-[3-Cyano-4-(tetrahydro-pyran-4-yloxy)-phenyl]-furo[3,2-b]pyridin-2-yl}-3-methoxy-N-(tetrahydro-pyran-4-yl)-benzamide], the IC50 at TBK1 and on IKKε was under 100 nM in each case.
Turning to `COc1cc(C(=O)N(C)CCO)cnc1-c1cc2ncc(C)c(-c3ccc(OC4CCOCC4)c(C#N)c3)c2o1` [Compound 330, 6-(7-(3-cyano-4-(tetrahydro-2H-pyran-4-yloxy)phenyl)-6-methylfuro[3,2-b]pyridin-2-yl)-N-(2-hydroxyethyl)-5-methoxy-N-methylnicotinamide], the half-inhibitory concentration (IC50) on TBK1 and on IKKε was 1000 to 5000 nM in each case.

The record behind these values is patent US10428080B2, “TBK/IKK inhibitor compounds and uses thereof” (Merck Patent GmbH, priority 2015, dated 2019).
